Data from ChEMBL document CHEMBL5150014, “Discovery and Development of Dolastatin 10-Derived Antibody Drug Conjugate Anticancer Drugs” (J Nat Prod, 2022).
Starred links: 1 amine or outer side, 2 acyl side, 3 side chain; linkers in the order of their positions; H or OH if unused. Non-standard residues stand in square brackets, D forms with d. Residues, ends and D or L forms follow the SMILES beside them. *: point of attachment. Dolaproine(4S-N3) = CO[C@H]([C@@H](C)C(=O)[*:2])[C@@H]1C[C@H](N=[N+]=[N-])CN1[*:1]; Dolaproine = CO[C@@H]([C@@H]1CCCN1)[C@@H](C)C(=O)O; Abu(3S-N3) = C[C@H](N=[N+]=[N-])[C@H](N)C(=O)O; Dil = CC[C@H](C)[C@H](NC)[C@@H](CC(=O)O)OC; NMe2Val = CC(C)[C@@H](C(=O)*)N(C)C; NMeV = CN[C@H](C(=O)O)C(C)C

Key:
[1] = test system: BT-474; experiment: Anticancer activity against human BT-474 assessed as cell growth inhibition incubated for 4 days by WST-8 assay; type: functional; conditions: BT-474, 96 h, time 4 day
[2] = test system: MOLM-13; experiment: Cytotoxicity against human MOLM-13 cells assessed as cell growth inhibition; type: functional, cell-based
[3] = test system: Panel NCI-60 (60 carcinoma cell lines); experiment: Cytotoxicity against human Panel NCI-60 (60 carcinoma cell lines) assessed as cell growth inhibition; type: functional, cell-based
[4] = test system: SK-BR-3; experiment: Cytotoxicity against human SK-BR-3 cells assessed as cell growth inhibition incubated for 72 hrs by CellTiter-Glo assay; type: functional

## CC[C@H](C)[C@@H]([C@@H](CC(=O)N1C[C@@H](OC)C[C@H]1[C@H](OC)[C@@H](C)C(=O)NCCc1ccccc1)OC)N(C)C(=O)[C@@H](NC(=O)[C@H](C(C)C)N(C)C)C(C)C
[1]
  GI50: 0.24 nM

## CC[C@H](C)[C@@H]([C@@H](CC(=O)N1C[C@@H](N=[N+]=[N-])C[C@H]1[C@H](OC)[C@@H](C)C(=O)N[C@@H](Cc1ccccc1)C(=O)OC)OC)N(C)C(=O)[C@@H](NC(=O)[C@@H](NC)C(C)C)C(C)C (H-[NMeV]V[Dil][Dolaproine(4S-N3)]F-OMe)
[2]
  GI50: 0.224 nM

## CC[C@H](C)[C@@H]1[C@H](OC)CC(=O)N2C[C@H](C[C@H]2[C@H](OC)[C@@H](C)C(=O)N[C@@H](Cc2ccccc2)C(=O)OC)NC(=O)CCCC(=O)N[C@@H](C)[C@H](NC(=O)[C@H](NC)C(C)C)C(=O)N1C
[2]
  IC50: > 1000 nM

## CC[C@H](C)[C@@H]([C@@H](CC(=O)N1C[C@@H](O)C[C@H]1[C@H](OC)[C@@H](C)C(=O)NCCc1c(F)cccc1F)OC)N(C)C(=O)[C@@H](NC(=O)[C@H](C(C)C)N(C)C)C(C)C
[1]
  GI50: 0.23 nM

## CC[C@H](C)[C@@H]([C@@H](CC(=O)N1C[C@@H](N=[N+]=[N-])C[C@H]1[C@H](OC)[C@@H](C)C(=O)N[C@@H](Cc1ccccc1)C(=O)OC)OC)N(C)C(=O)[C@@H](NC(=O)[C@@H](NC)C(C)C)[C@H](C)N=[N+]=[N-] (H-[NMeV][Abu(3S-N3)][Dil][Dolaproine(4S-N3)]F-OMe)
[2]
  GI50: 0.279 nM

## CC[C@H](C)[C@@H]([C@@H](CC(=O)N1CCC[C@H]1[C@H](OC)[C@@H](C)C(=O)N[C@@H](Cc1ccccc1)C(=O)O)OC)N(C)C(=O)[C@@H](NC(=O)[C@H](C(C)C)N(C)C)C(C)C (NMe2Val-V[Dil][Dolaproine]F-OH)
[3]
  IC50: 105 nM

## CC[C@H](C)[C@@H]([C@@H](CC(=O)N1CCC[C@H]1[C@H](OC)[C@@H](C)C(=O)N[C@@H](Cc1ccccc1)C(=O)OC)OC)N(C)C(=O)[C@@H](NC(=O)[C@H](C(C)C)N(C)C)C(C)C (NMe2Val-V[Dil][Dolaproine]F-OMe)
[3]
  GI50: 0.2 nM

## CC[C@H](C)[C@@H]([C@@H](CC(=O)N1CC(=O)C[C@H]1[C@H](OC)[C@@H](C)C(=O)NCCc1ccccc1)OC)N(C)C(=O)[C@@H](NC(=O)[C@H](C(C)C)N(C)C)C(C)C
[1]
  GI50: 5.23 nM

## CC[C@H](C)[C@@H]([C@@H](CC(=O)N1C[C@H](O)C[C@H]1[C@H](OC)[C@@H](C)C(=O)NCCc1ccccc1)OC)N(C)C(=O)[C@@H](NC(=O)[C@H](C(C)C)N(C)C)C(C)C
[1]
  GI50: 0.68 nM

## CC[C@H](C)[C@@H]([C@@H](CC(=O)N1C[C@@H](F)C[C@H]1[C@H](OC)[C@@H](C)C(=O)N[C@@H](Cc1ccccc1)C(=O)O)OC)N(C)C(=O)[C@@H](NC(=O)[C@@H](NC)C(C)C)C(C)C (HELM PEPTIDE1{[meV].V.[CC[C@H](C)[C@@H]([C@@H](CC(=O)[*:2])OC)N(C)[*:1]].[CO[C@H]([C@@H](C)C(=O)[*:2])[C@@H]1C[C@H](F)CN1[*:1]].F}$$$$V2.0)
[4]
  GI50: 81.7 nM

## CC[C@H](C)[C@@H]([C@@H](CC(=O)N1C[C@@H](N=[N+]=[N-])C[C@H]1[C@H](OC)[C@@H](C)C(=O)N[C@@H](Cc1ccccc1)C(=O)OC)OC)N(C)C(=O)[C@@H](NC(=O)[C@H](C(C)C)N(C)C)[C@H](C)N=[N+]=[N-]
[2]
  GI50: 0.057 nM

## CC[C@H](C)[C@@H]([C@@H](CC(=O)N1C[C@@H](N)C[C@H]1[C@H](OC)[C@@H](C)C(=O)NCCc1c(F)cccc1F)OC)N(C)C(=O)[C@@H](NC(=O)[C@H](C(C)C)N(C)C)C(C)C
[1]
  GI50: 0.17 nM

## CC[C@H](C)[C@@H]([C@@H](CC(=O)N1CCC[C@H]1[C@H](OC)[C@@H](C)C(=O)NCCc1ccccc1)OC)N(C)C(=O)[C@@H](NC(=O)[C@H](C(C)C)N(C)C)C(C)C [SOBLIDOTIN]
[3]
  GI50: 0.49 nM

## CC[C@H](C)[C@@H]([C@@H](CC(=O)N1C[C@@H](NC)C[C@H]1[C@H](OC)[C@@H](C)C(=O)NCCc1c(F)cccc1F)OC)N(C)C(=O)[C@@H](NC(=O)[C@H](C(C)C)N(C)C)C(C)C
[1]
  GI50: 0.34 nM
